Experimental data: patent publication US20230364069A1, “METHOD FOR TREATING NON-ALCOHOLIC STEATOHEPATITIS THROUGH CO-ADMINISTRATION OF CURCUMIN DERIVATIVE AND TGF-B RECEPTOR INHIBITOR” (UNIVERSITY INDUSTRY FOUNDATION, YONSEI UNIVERSITY WONJU …, priority 2021, published 2023)

Columns and labels:
[1] = system: mouse hepatocyte cell lines (AML12); experiment: TGF-β-induced fibrosis, co-administration of curcumin derivative and EW-7197 (epithelial-mesenchymal conversion, BODIPY, α-SMA staining, Western blotting); format: cell-based; settings: 2 ng/ml TGF-β, 24 hours, 1 μM Cur or Cur5-8, 10 μM EW-7197; for epithelial-mesenchymal conversion caused by TGF-β: FIG. 8; for liver fibrosis (α-SMA staining, fibrosis marker Western blotting): FIGS. 8, 10, 11
Description: Fibrosis was induced in hepatocytes with TGF-β, a curcumin derivative and a TGF-β receptor inhibitor were co-administered, and then fibrosis and fat synthesis and degradation were checked.
Specifically, 2 ng/ml of TGF-β was administered to the cells of Example 1-1, the cells were divided into administration groups of vehicle (Veh), 1 μM curcumin (Cur), 1 μM curcumin 5-8 (Cur5-8), 0.5 μM EW-7197 (EW0.5), 10 μM EW-7197 (EW or EW10), 1 μM curcumin and 0.5 μM EW-7197 (EW0.5+Cur), 1 μM curcumin and 10 μM EW-7197 (EW+Cur or EW10+Cur), 1 μM curcumin 5-8 and 0.5 μM EW-7197 (EW0.5+Cur5-8), 1 μM curcumin 5-8 and 10 μM EW-7197 (EW+Cur5-8 or EW10+Cur5-8), respective samples were administered, and culturing was performed for 24 hours. The control group (Con) was not treated with either TGF-β or the sample. […] After washing with PBS 1×, stained cells were observed.
In addition, in order to check the degree of fibrosis of hepatocytes, the cells cultured for 24 hours were fixed with 4% paraformaldehyde and then stained by using α-SMA (Santa Cruz Biotechnology, Inc., Dallas, Texas, USA), an Alexafluor 488 (Cell Signaling Technology, Danvers, Massachusetts, USA) antibody, and DAPI (Abcam plc., Cambridge, MA, USA). The cells were mounted with a mounting solution (Fisher Scientific, Hampton, Rockingham, USA), the manufactured sample was photographed using a confocal microscope to obtain photographs of stained cells, and the degree of color development in the photographs of the stained cells was analyzed with the ImageJ program.
In addition, in order to confirm the degree of fibrosis of hepatocytes, the cells cultured for 24 hours were collected, and protein expressions of α-SMA, Collagen I (Coll), p-SMAD2, and p-SMAD3 were checked by Western blotting with fibrosis markers in the same method as described in <Example 1-3>.
In order to check a synergistic effect of inhibiting fibrosis caused by a TGF-β and inhibiting fat accumulation caused thereby in case of co-administration of a curcumin derivative (Cur5-8) and a TGF-β receptor inhibitor (EW-7197), epithelial-mesenchymal conversion of hepatocytes was confirmed through a cell experiment by the method described in Example 1-5, and BODIPY staining and α-SMA staining were performed. Also, protein expressions of α-SMA, Collagen I p-SMAD2, and p-SMAD3 were checked by Western blotting.

[2] = system: C57BL/6 mice in which steatohepatitis was induced with a methionine-choline deficient diet; experiment: Steatohepatitis animal model (MCD), curcumin 5-8 and high-concentration EW-7197 (40 mg/kg); format: in vivo, mouse; settings: for fat accumulation in the liver tissues / fibrosis of liver tissues: MCD-fed mice, EW-7197 40 mg/kg, Western blotting, FIGS. 19 to 24; for fat accumulation in the liver tissues: H&E; for fibrosis of liver tissues: Picrosirius red, Masson's trichrome
Description: 8-week-old male C57BL/6 mice weighing 20 to 25 g were purchased from Dae Han Bio Link Co., Ltd. (Chungbuk). Mice were acclimatized for one week under room temperature (25° C.±2° C.) in 60%±5% humidity and a 12-hour light/dark cycle. Mice were fed with a normal diet (Research Diets, RD) and allowed to drink water freely. Afterwards, the mice were randomly divided into five groups according to the fed diets or administered drugs, and the five groups were a group which was fed with a normal diet (Con), a group which was fed with a methionine-choline deficient diet (MCD), a group which was fed with a mixture of an MCD and curcumin 5-8 (1 g of curcumin 5-8 per 1 kg of the diet) (MCD+Cur5-8), a group which was fed with an MCD and to which EW-7197 was orally administered (MCD+EW), and a group which was fed with a mixture of an MCD and curcumin 5-8 and to which EW-7197 was orally administered together (MCD+EW+Cur5-8) (n=10).
EW-7197 was administered directly to the stomach by an oral administration method once every two days at 40 mg/kg. Body weights were measured every week during the experiment period, and liver tissues were harvested after 6 weeks and stored at −80° C. All experiments were performed with the approval of the Institutional Animal Care and Use Committee at Wonju College of Medicine of Yonsei University (YWC-200907-1).
In order to confirm the physiological changes in case of co-administration of a curcumin derivative (Cur5-8) and a TGF-β receptor inhibitor (EW-7197), the liver weights and the concentrations of TG, TC, AST, ALT, and γ-GT in serum were measured. In addition, hydroxyprolin expression was checked as a fibrosis marker in the liver tissues.
Specifically, the weights of the liver tissues harvested in Examples 2-1 and 2-2 were measured before storage.
In Examples 2-1 and 2-2, blood was collected after the experiment was completed, and concentrations of TG, TC, AST, ALT, and γ-GT in serum were measured. In order to measure blood glucose, triglyceride, cholesterol, and AST and ALT concentrations, ELISA kit of Asan Pharm. Co., Ltd. was purchased, and the measuring was performed. γ-GT in the liver was measured by using Mak089 of Sigma-Aldrich, and hydroxyproline was measured by using STA-675 ELISA kit of Cell Biolabs, Inc.
In addition, the hydroxyprolin expression was checked in the liver tissues harvested in Examples 2-1 and 2-2.
In order to check effects of inhibiting fat accumulation in liver tissues and fibrosis in liver tissues in case of co-administration of a curcumin derivative (Cur5-8) and a TGF-β receptor inhibitor (EW-7197), the liver tissues were stained.
The liver tissues harvested in Examples 2-1 and 2-2 were fixed with 10% formaldehyde, the formaldehyde was washed out with running water for more than 12 hours, and then washing was performed with 60% ethanol at a one-hour interval, with 70% ethanol at a one-hour interval, and with 100% ethanol at a one-hour interval. Then, the transparency process in xylene was performed three times for one hour each, and the infiltration process in paraffin was performed twice for one hour each. Then, the paraffin block was cut to a thickness of about […] to obtain slices. After deparaffinization, the slices were stained with hematoxylin and eosin (H&E staining), and blood vessels and lipid droplets in the liver tissues were checked. […]
In addition, H&E-stained liver slices were evaluated by using the NAFLD activity score (NAS) system. […]

Compound | epithelial-mesenchymal conversion caused by TGF-β [1] | fat accumulation / adipogenesis in cells (BODIPY staining) ([1]; FIGS. 8, 9) | liver fibrosis (α-SMA staining, fibrosis marker Western blotting) [1] | fat accumulation in the liver tissues [2] | fibrosis of liver tissues [2] | AST (aspartate transaminase) ([2]; MCD-fed C57BL/6 mice, 6 weeks, EW-7197 40 mg/kg oral once every two days, curcumin 5-8 1 g per 1 kg diet) [IU/L]
Cc1cccc(-c2[nH]c(CNc3ccccc3F)nc2-c2ccc3ncnn3c2)n1 [EW-7197, N-(2-fluorophenyl)-5-(6-methyl-2-pyridinyl)-4-[1,2,4]triazolo[1,5-a]pyridin-6-yl-1H-imidazole-2-methanamine] | inhibited | fat accumulation in cells was exhibited | inhibited | not inhibited | inhibited | –
COc1cc(/C=C/C(=O)c2cccc(NC(=O)C(C)C)c2)ccc1O [Cur5-8, N-{3-[(2E)-3-(4-hydroxy-3-methoxyphenyl)prop-2-enoyl]phenyl}-2-methylpropanamide] | not inhibited | – | liver fibrosis was induced | reduced | not improved | 119.9 ± 3.80
